Read-outs that look alike come from different tables or passages of the source.

For experiment [1], the target named is T1, PHP1 (Homo sapiens, UniProt Q9NRX4).
T1 sequence (Q9NRX4 1-125): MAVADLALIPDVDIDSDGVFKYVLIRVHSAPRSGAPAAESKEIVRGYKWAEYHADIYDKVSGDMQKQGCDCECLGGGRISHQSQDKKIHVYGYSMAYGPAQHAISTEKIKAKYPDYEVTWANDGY
Nature of the experiment: pH-dependence of conversion of fluorogenic and chromogenic substrates by PHP1. Particulars: for acceptance as substrate by PHP1: pH 5-9, 0.1 μM PHP1; for turnover rate by PHP1 in more alkaline media: pH above the maximum, up to pH 9. The experiment is classed as biochemical. The source says:
Because it is well known that the use of phospho fluorophores like DIFMUP, MUP, DDAO or FDP as phosphatase substrates have certain limitations due to the compatibility of the substrate pKa-values with the pH-optima of the respective phosphatase, the pH-dependence of the PHP1 reactivity towards the aforementioned fluorogenic substrates is to be determined. As shown in FIG. 1 the pH is varied from pH=5-9 in steps of 0.5 pH-units. In order to avoid undesired fluorescence flattening effects due to high absorption by the accumulating reaction product the initial reaction velocity is used as relative measure for the pH-dependence of PHP1-reactivity towards the selected substrate.
To start the reaction PHP1 was added from a pre dilution in the respective reaction buffer to yield a final concentration of 0.1 μM. The reaction was monitored by recording the increase in relative fluorescence at the respective fluorescence emission maxima (Fluoromax Gemini XL microplate reader).

In experiment [2] the target is T1, PHP1. Nature of the experiment: Kinetic analysis of the conversion of FDP and DiFMUP by PHP1. The format is biochemical. Particulars: pH 7.0, 0.1 μM PHP1.
Description: The KM-values for DiFMUP and FDP can be approximated by recording the initial reaction velocity in dependence of the substrate concentration, as observed by the increase in relative fluorescence at the respective fluorescence emission maxima upon addition of PHP1. […] This effect limits the range of substrate variation. For FDP concentrations >20 μM the signal quenching disturbs reaction rate measurements detrimentally. […] Measurements for DiFMUP are limited to concentrations below 500 μM.
To start the reaction PHP1 was added from a stock solution to a final concentration of 0.1 in μM. The reaction was monitored by recording the increase in relative fluorescence at the respective fluorescence emission maxima in an SLM fluorescence spectrometer. To allow for quantification the fluorescence signal was normalised using a standard curve recorded for a serial dilution of fully dephosphorylated DiFMUP and FDP respectively. All recordings were carried out at the same PM-voltage and integration time with correction for the relative signal gain.
Experiment [3] concerns the target T2, T-cell tyrosine phosphatase (Homo sapiens, UniProt P17706).
T2 sequence (P17706 1-415): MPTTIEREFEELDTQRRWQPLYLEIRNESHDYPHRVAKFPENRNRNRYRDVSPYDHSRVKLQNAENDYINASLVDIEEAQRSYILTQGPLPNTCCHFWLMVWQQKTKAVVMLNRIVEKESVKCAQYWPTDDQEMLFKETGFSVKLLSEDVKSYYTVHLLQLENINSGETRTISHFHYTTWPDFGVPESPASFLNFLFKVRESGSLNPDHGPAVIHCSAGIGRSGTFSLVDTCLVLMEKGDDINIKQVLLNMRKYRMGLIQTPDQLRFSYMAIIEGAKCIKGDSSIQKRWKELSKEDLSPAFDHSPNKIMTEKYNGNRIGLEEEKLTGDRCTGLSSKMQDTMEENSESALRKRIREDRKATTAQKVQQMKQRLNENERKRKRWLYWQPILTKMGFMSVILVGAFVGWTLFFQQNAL
The conditions noted are these: from literature (Kerby et al. 2001); cited from earlier work.

Experiment [4] deals with T1, PHP1. Nature of the experiment: Screening assay for inhibitors or activators of PHP1 with DiFMUP substrate. The format is biochemical. As to the method:
In order to test whether the phosphoamidase and protein phosphoamidase substrates of the present invention are suitable for the for identification of inhibitors or activators of these proteins, the activity of PHP1 was determined with the substrate DiFMUP in presence of bisperoxo-(bipyridine)-oxovanadate [(bp)V(bipy)], a well characterized inhibitor of protein phosphotyrosine phosphatase(FIG. 9). The inhibitor concentration varied from 0.01 to 30 μM, the enzyme concentration was kept at 0.1 μM and substrate concentration at 50 μM. After incubation for 15 min at room temperature the fluorescence was detected at 450 nm on excitation at 360 nm.
The reaction mixtures for inhibitor screening were prepared by serial 2 fold dilution of the inhibitor bpV(bipy) (Alexis Biochemicals San Diego) starting at 60 μM into 50 μl of the assay buffer consisting of 25 mM Hepes pH=7, 20 mM NaCl, 1 mM MgCl2, 0.01 mg/ml BSA. In a next step 50 μl of a solution of 0.3 μM PHP1 in assay buffer was added to each well and incubated for 5 min at room temperature. In order to initiate the reaction a pre dilution of 50 μM DiFMUP-substrate in assay-buffer was rapidly added to all wells. The reaction was monitored by recording the increase in relative fluorescence at the respective fluorescence emission maxima (Fluoromax Gemini XL microplate reader). The relative activity was calculated using the RFU derived from a control reaction without inhibitor.

[5] abbreviates: 0.1 μM PHP1, 50 μM DiFMUP, inhibitor 0.01 to 30 μM.

For `O=[N+]([O-])c1ccc(OP(=O)(O)O)cc1` [pNPP, para-nitrophenol phosphate], the “acceptance as substrate by PHP1” value on PHP1 [1] is “not recognised and processed by PHP1 at any pH”.

Regarding fluorescein diphosphate [FDP], on PHP1 [1], the “acceptance as substrate by PHP1” value is on record as “accepts” and the “turnover rate by PHP1 in more alkaline media” value (“turnover rate by PHP1” below) is on record as “second distinct maximum”. In addition, at PHP1 [2] (non-linear curve fit, high uncertainty, read-out: Michaelis constant KM for PHP1), the Km (in general, the substrate concentration at which the rate is half of its maximum) is around 20 µM.

For `Cc1cc(=O)oc2c(F)c(OP(=O)(O)O)c(F)cc12` [DiFMUP, 6,8-difluoro-4-methylum-belliferyl phosphate], on PHP1 [1], the “acceptance as substrate by PHP1” value was “accepts” and the “turnover rate by PHP1” value is on record as “decrease in turnover rate”. The Km at PHP1 [2] (estimated from Lineweaver-Burk plot, read-out: KM-value for PHP1) was above 1000 µM. In experiment [3], the Km is 20 µM.

For the compound “bisperoxo-(bipyridine)-oxovanadate [(bp)V(bipy)]”, at PHP1 [4] (setting [5]), the “concentration showing inhibitory effect on PHP1” value is on record as “above 10 μM”; the “inhibition of PHP1 activity” value is “reproducible and clearly dose-dependent inhibition”. Besides, the “activation of PHP1 activity” value at PHP1 [4] (equimolar concentrations (0.1 μM PHP1), 50 μM DiFMUP) is “by a factor of two”.

Regarding `CC1(C)C2=C(Cl)C(=O)C(Cl)=CC2=Nc2ccc(OP(=O)(O)O)cc21` [DDAO, 9H-(1,3-dichloro-9,9-dimethyl-acridin-2-one-7-yl)phosphate], on PHP1 [1], the “acceptance as substrate by PHP1” value is “accepts” and the “turnover rate by PHP1” value is “stays relatively constant”.

The record behind these values is patent US7348160B2, “Phosphoamidase assay” (Merck Patent GmbH, priority 2002, dated 2008).
